Reference: patent US20250057793A1, “BENZOIC ACID SALTS FOR TREATMENT OF NERVOUS SYSTEM INJURIES AND DISORDERS” (The United States Government as represented by the …, priority 2021, published 2025)

Columns and labels:
[1] = test system: TBI mice; test: Novel object recognition (NOR) test in TBI mice; type: in vivo, mouse; settings: 21 days post-injury, 50 mg/kg/day oral gavage
Description: This test evaluates the animal's ability to recognize the novel object in the environment and monitor short-term memory. Initially, the mice were placed in a square novel box (20 in. long×8 in. high) surrounded with an infrared sensor. Two plastic toys (2.5-3 in. size) that varied in color, shape, and texture were placed in specific locations in the environment 18in. away from each other. The mice were able to freely explore the environment and objects for 15 mins and were then placed back into their individual home cages. After 30 min intervals, the mice were placed back into the environment, with the 2 objects in the same locations, but now one of the familiar objects was replaced with a third novel object. The mice were again allowed to freely explore both objects for 15 min. The familiar and novel objects were thoroughly cleaned with a mild detergent after each testing session.

[2] = test system: TBI mice; test: Synapse maturation markers (PSD-95, NR2A, GluR1) in brain of TBI mice; type: in vivo, mouse; settings: 21 days post-injury, 50 mg/kg/day oral gavage
Description: FIGS. 1lA-11H. Restoration of PSD-95, NR2A and GluR1 in the hippocampus of TBI mice by oral administration of GTB. […] Twenty-one days after CCI injury, brain sections were double-labeled for NeuN and PSD-95 (FIG. 11A, control; FIG. 111B, CCI; FIG. 11C, CCI+GTB; FIG. 11D, CCI+Vehicle). Results represent analysis of one section of each of six mice per group. […] FIG. 11E. Actin was run as a loading control. […] Data are expressed as mean+SD. Statistical analyses were performed with one way ANOVA.

[3] = test system: Huntington pathology in mice; settings: oral, 50 mg/kg body wt/d; cited from earlier work
[4] = test system: mice with traumatic brain injury (TBI); test: Remyelination in corpus callosum of mice with TBI (PLP/A2B5 double-labeling); type: in vivo, mouse; settings: 50 mg/kg body weight/day oral gavage
Description: FIG. 4 are images of the corpus collosum in mice showing the levels of proteolipid protein (PLP) and A2B5, a marker of oligodendroglial progenitor cells (OPC), in the experimental conditions after 21 days. Oral administration of sodium benzoate (NaB), but not sodium formate (NaFO), stimulates remyelination in mice with traumatic brain injury (TBI). Mice (n=6 per group) were induced moderate TBI by controlled cortical impact (CCI). Starting from 2 hours after TBI, mice were treated with NaB and NaFO (50 mg/kg body weight/day; mixed with water) orally via gavage. After 21 d of treatment, brain sections were double-labeled for PLP and A2B5.
Proteolipid protein (PLP) is a marker of oligodendrocytes and A2B5 is a marker of oligodendroglial progenitor cells (OPC). After 21 days of treatment, brain sections were double-labeled with antibodies against PLP and A2B5.

[5] = test system: mice with TBI; test: Side effects of oral NaB in TBI mice; type: in vivo, mouse
[6] = test system: OPCs cultured on polycaprolactone nanofibers; test: Myelination of synthetic polycaprolactone nanofibers by OPCs; type: cell-based, mouse; settings: 100 μM, 2 days after 7 days culture on nanofibers
Description: FIG. 15A) After 18 h of 100 μM NaB treatment in serum-free condition, cells were fixed and then dual immuno-stained with MBP (red) and OPC marker NG2 (green). Nuclei were stained with DAPI (blue). FIG. 15B) Similarly, OPCs were stained with PLP (red) and A2B5 (green) under similar treatment condition. Quantification of MBP+(FIG. 15C), NG2+(FIG. 15D), PLP+(FIG. 15E), and A2B5+(FIG. 15F) cells as a percentage of total cells (DAPI+). Average 5 fields per slide, total 3 slides. Results are mean+SEM. ***p<0.001. FIG. 15G) For protein expression, cells were treated with different doses of NaB for 18 h under serum free condition and then immunoblotted with PLP and MOG. FIG. 15H) Densitometric analyses of the bands relative to beta actin were done for PLP and MOG. ^ap<0.001 vs. control PLP; ^bp<0.005 vs. control MOG. FIG. 151) Cells were treated with NaB (100 μM) and NaFO (100 μM) for 4 h under serum-free condition followed by monitoring the mRNA expression of myelin-specific genes by real-time PCR (ap<0.01 vs. control PLP; ^bp<0.01 vs. control MOG; cp<0.01 vs. control MBP; dp<0.01 vs. control CNPase). OPCs were cultured on the top of randomly-oriented polycaprolactone nanofibers (Nanofiber Solutions; Cat #Z694576) for 7 days. […]

[7] = test system: cuprizone-intoxicated mice; test: Remyelination of corpus callosum in cuprizone-intoxicated mouse model of demyelination; type: in vivo; settings: cuprizone diet 5 weeks, then NaB 50 mg/kg body wt/d oral gavage 3 weeks
Description: FIGS. 16A-16C: Oral NaB stimulates the maturation of OPCs in vivo in the corpus callosum of cuprizone-intoxicated mice. C57/BL6 mice (8-10 week old; male) were fed cuprizone-containing diet (Envigo) for 5 weeks followed by treatment with NaB (50 mg/kg body wt/d) orally via gavage. FIG. 16A) After 3 weeks of treatment with NaB, corpus callosum sections were double-labeled for PLP and A2B5. Mean fluorescence intensity (MFI) of A2B5 (FIG. 16B) and PLP (FIG. 16C) were quantified from one section (two images per section) of each of 5 mice group. Results are mean+SEM of 5 mice per group. ***p<0.001; **p<0.01.
FIGS. 17A-17H: Effect of NaB on myelination in vivo in the corpus callosum of cuprizone-intoxicated mice. C57/BL6 mice (8-10 week old; male; n=5) were fed cuprizone-containing diet (Envigo) for 5 weeks followed by treatment with NaB (50 mg/kg body wt/d) orally via gavage. After 3 weeks of treatment with NaB, corpus callosum sections were immunostained MBP (FIG. 17A) and PLP (FIG. 17B). Mean fluorescence intensity (MFI) of MBP (FIG. 17C) and PLP (FIG. 17D) were quantified from one section (two images per section) of each of 5 mice group. Results are mean+SEM of 5 mice per group. **p<0.01; *p<0.05. FIG. 17E) Corpus callosum sections were stained for luxol fast blue (LFB). FIG. 17F) For electron microscopic studies, 50 μm thick sagittal sections were prepared and stained followed by analysis of corpus callosum sections for different parameters to evaluate axonal ultrastructures. FIG. 17G) G score was calculated in 75 axons per group for all three groups. FIG. 17H) Percentage of myelinated axons was calculated in 7 randomly selected corpus callosum sections of 5 mice per group. ***p<0.001.

SMILES	time spent with novel object (exploration time) [1]	level of PSD-95 ([2]; brain (cortex, hippocampus))	level of GluR1 ([2]; hippocampus)	level of NR2A ([2]; hippocampus)	Huntington pathology [3]	level of PLP in corpus callosum ([4]; 21 days of treatment)	number of OPCs (A2B5 positive) in corpus callosum ([4]; 21 days of treatment)	remyelination ([4]; 21 d of treatment)	side effects (decrease in body weight, loss of hair, fecal boli, infection, untoward behavior) [5]	myelination of synthetic fibers (MBP immunofluorescence) [6]	MBP in corpus callosum [7]	level of A2B5 in corpus callosum [7]	level of PLP in corpus callosum [7]	maturation of OPCs in vivo in the corpus callosum [7]	remyelination in the corpus callosum [7]
O=C(OCC(COC(=O)c1ccccc1)OC(=O)c1ccccc1)c1ccccc1 [GTB, Glyceryl Tribenzoate]	significantly more time	upregulated	increased	increased	alleviates	–	–	–	–	–	–	–	–	–	–
O=C([O-])c1ccccc1.[Na+] [NaB, Sodium benzoate]	–	–	–	–	–	markedly increased	decreased	stimulates	did not cause any side effects	stimulation of myelination	increased	decreased	increased	stimulates	can promote remyelination
